Reference: patent publication US8658662B2, “Crystalline CDC7 inhibitor salts” (Nerviano Medical Sciences S.r.l., priority 2009, dated 2014)
Values after ≈ are worked out from the molar mass of the structure shown. Counter-ions that a name gives are not always drawn. Like-named read-outs stand apart in the source and are kept apart here.

What was measured:
Type in all cases: physicochemical
[1] = Hygroscopicity test by Dynamic Vapour Sorption (DVS); conditions: RH modifications up to 90% at 25° C.
Source text: The water uptake of crystalline NMS-E354 salts and free base was investigated by submitting a sample of such substances to a hygroscopicity test by means of a DVS 1000 (SMS). The apparatus is a “controlled atmosphere microbalance” where the weighed sample is exposed to programmed variations of the relative humidity (RH) at a constant and controlled temperature. The measured parameters (weight, time and RH), reported in Excel worksheets, allow obtaining hygroscopicity curves over the tested RH range. Sorption/desorption cycles between 0% and 90% RH can be performed at controlled temperature of 25° C. Progressive variations of RH can be of 10% and 3%; they are operated by the software at the equilibration of the sample weight. This condition can be defined at a constant rate of percent weight variation e.g. 0.005%/min.

[2] = Solubility of crystalline NMS-E354 salts and free base in 0.9% NaCl solution; conditions: for Aqueous solubility value: stirred 4 hours at RT, excess solid (target 10 mg/ml), filtered, HPLC
Method: The determination of solubility of NMS-E354 salts has been performed by means of the following procedure: known amounts of crystalline NMS-E354 salts or free base stirred for 4 hours at RT in 0.9% NaCl solution, in condition of excess solid considering a target concentration of 10 mg/ml. The obtained preparations were filtered and analysed by means of HPLC.

[3] = Solubility of NMS-E354 free base in water and early formulation vehicles
Method: The solubility of the NMS-E354 free base is about 4 mg/ml in 10% Polysorbate 80 in 5% dextrose solution, about 7 mg/ml in aqueous 50% Polyethylene Glycol 400 in 5% dextrose solution and about 1÷2 mg/ml when formulated as hydrochloride or phosphate in situ salt. NMS-E354 free base was also suitable for aqueous hypromellose suspensions at about 10 mg/ml. Therefore, the obtained free base was initially formulated as cosolvent based aqueous solution, in situ salt or hypromellose suspension in order to allow administration during early pharmacological and toxicological evaluation for early pharmacological studies.

Row | Structure (SMILES) | hygroscopicity [1] | solubility in 0.9% NaCl solution [2] | Aqueous solubility value [2] | solubility ([3]; 10% Polysorbate 80 in 5% dextrose solution, aqueous with cosolvent or surfactant or cyclodextrin, read-out: solubility) | solubility ([3]; aqueous 50% Polyethylene Glycol 400 in 5% dextrose solution, aqueous with cosolvent or surfactant or cyclodextrin, read-out: solubility) | solubility ([3]; hydrochloride or phosphate in situ salt formulation, formulated as hydrochloride or phosphate in situ salt, read-out: solubility) | solubility ([3]; water, read-out: aqueous solubility) | Aqueous solubility value ([2]; listed as Free base)
1 | NC(=O)c1cc(-c2ccnc(N)n2)[nH]c1-c1ccc(Cl)cc1Cl [Maleate salt, 5-(2-amino-pyrimidin-4-yl)-2-(2,4-dichloro-phenyl)-1H-pyrrole-3-carboxylic acid amide] | low hygroscopicity | 70 µg/mL | 70 µg/mL | – | – | – | – | –
2 | NC(=O)c1cc(-c2ccnc(N)n2)[nH]c1-c1ccc(Cl)cc1Cl [Hemifumarate salt, 5-(2-amino-pyrimidin-4-yl)-2-(2,4-dichloro-phenyl)-1H-pyrrole-3-carboxylic acid amide] | low hygroscopicity | – | 20 µg/mL | – | – | – | – | –
3 | NC(=O)c1cc(-c2ccnc(N)n2)[nH]c1-c1ccc(Cl)cc1Cl [Mesylate salt, 5-(2-amino-pyrimidin-4-yl)-2-(2,4-dichloro-phenyl)-1H-pyrrole-3-carboxylic acid amide] | low hygroscopicity | – | 120 µg/mL | – | – | – | – | –
4 | NC(=O)c1cc(-c2ccnc(N)n2)[nH]c1-c1ccc(Cl)cc1Cl [Sulfate salt, 5-(2-amino-pyrimidin-4-yl)-2-(2,4-dichloro-phenyl)-1H-pyrrole-3-carboxylic acid amide] | low hygroscopicity | 150 µg/mL | 150 µg/mL | – | – | – | – | –
5 | NC(=O)c1cc(-c2ccnc(N)n2)[nH]c1-c1ccc(Cl)cc1Cl [NMS-E354, 5-(2-amino-pyrimidin-4-yl)-2-(2,4-dichloro-phenyl)-1H-pyrrole-3-carboxylic acid amide] | low hygroscopicity | – | – | ~4000 µg/mL (≈ 11.5 mM) | ~7000 µg/mL (≈ 20.1 mM) | 1000 to 2000 µg/mL | < 10 µg/mL | <10 µg/mL
